# Experimental data as given in patent publication US7989480B2, “Aryl amino acid derivatives as inhibitors for treating inflammation” (Decode Genetics EHF, priority 2006, dated 2011).
# Where a name gives a salt, the structure may show the parent alone. Read-outs that look alike come from different tables or passages of the source.
# What was measured:
# [1] = molecular target: T1, LTA4H (leukotriene A4 hydrolase) (Homo sapiens, UniProt P09960); assay: LTA4H enzyme inhibition (EnzIC50); type: biochemical
# T1 sequence (P09960 1-611): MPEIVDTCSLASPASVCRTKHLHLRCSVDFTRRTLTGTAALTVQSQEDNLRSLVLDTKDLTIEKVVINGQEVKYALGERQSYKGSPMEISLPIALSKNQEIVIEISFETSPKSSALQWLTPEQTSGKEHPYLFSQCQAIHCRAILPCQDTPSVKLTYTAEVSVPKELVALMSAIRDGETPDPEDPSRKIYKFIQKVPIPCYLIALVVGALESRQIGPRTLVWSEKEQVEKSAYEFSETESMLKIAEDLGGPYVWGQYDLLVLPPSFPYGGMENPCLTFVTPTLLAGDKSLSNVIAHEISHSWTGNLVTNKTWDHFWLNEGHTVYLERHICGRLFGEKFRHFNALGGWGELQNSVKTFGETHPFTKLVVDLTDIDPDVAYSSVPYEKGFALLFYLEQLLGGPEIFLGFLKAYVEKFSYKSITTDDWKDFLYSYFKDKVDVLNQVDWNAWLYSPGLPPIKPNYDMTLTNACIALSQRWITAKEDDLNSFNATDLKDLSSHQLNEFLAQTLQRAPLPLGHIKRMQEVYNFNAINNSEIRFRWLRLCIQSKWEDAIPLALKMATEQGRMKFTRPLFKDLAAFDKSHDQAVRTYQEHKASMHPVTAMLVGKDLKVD
# hWB = hWB assay; type: cell-based; conditions: Homo sapiens
# [2] = tested on: ionophore-induced LTB4 production; conditions: oral administration, mouse blood ex vivo; cited from earlier work
# colitis symptoms = conditions: eight weeks of treatment, primate model; cited from earlier work
# [3] = tested on: ionophore-induced LTB4 production; conditions: oral administration, rat peritoneum in vivo; cited from earlier work
Compound,IC50 [1] [µM],IC50 (hWB) [µM],further results
"N[C@@H](Cc1ccc(Oc2ccc(Oc3ccccc3)cc2)cc1)C(=O)O [Example 6, (2S)-2-Amino-3-[4-(4-phenoxyphenoxy)phenyl]propanoic acid hydrochloride]",< 5,< 5,
"CN[C@H](CO)Cc1ccc(Oc2ccc(Cc3ccccc3)cc2)cc1 [Example 9, (2S)-3-[4-(4-Benzylphenoxy)phenyl]-2-(methylamino)propan-1-ol hydrochloride]",5 to 20,,
"CN[C@H](CO)Cc1ccc(Oc2ccc(Oc3ccccc3)cc2)cc1 [Example 8, (2S)-2-(Methylamino)-3-[4-(4-phenoxyphenoxy)phenyl]propan-1-ol hydrochloride]",5 to 20,,
"N[C@@H](Cc1ccc(Oc2ccc(Cc3ccc(Cl)cc3)cc2)cc1)C(=O)O [Example 5, S)-2-Amino-3-{4-[4-(4-chloro-benzyl)-phenoxy]-phenyl}-propionic acid hydrochloride]",5 to 20,,
"N[C@@H](CO)Cc1ccc(Oc2ccc(Oc3ccccc3)cc2)cc1 [Example 3, (R)-2-Amino-3-[4-(4-phenoxy-phenoxy)-phenyl]-propan-1-ol hydrochloride]",< 5,,
N[C@H](CNO)Cc1ccc(Oc2ccc(Oc3ccc(Cl)cc3)cc2)cc1 [Example 14],< 5,< 5,
"N[C@H](CO)Cc1ccc(Oc2ccc(Cc3ccccc3)cc2)cc1 [Example 20, (S)-2-Amino-3-[4-(4-benzylphenoxy)-phenyl]-propan-1-ol hydrochloric acid salt]",< 5,< 5,
"COC(=O)[C@H](N)Cc1ccc(Oc2ccc(C(=O)c3ccccc3)cc2)cc1 [Example 2, (R)-2-Amino-3-[4-(4-benzoyl-phenoxy)-phenyl]-propionic acid methyl ester hydrochloride]",< 5,,
"N[C@H](CNO)Cc1ccc(Oc2ccc(Cl)cc2)cc1 [Example 21, N-{(S)-2-amino-3-[4-(4-chloro-phenoxy)-phenyl]-propyl}-hydroxyamine HCl salt]",< 5,,
"N[C@@H](Cc1ccc(Oc2ccc(Oc3ccc(-c4nccs4)cc3)cc2)cc1)C(=O)O [Example 11, (S)-2-Amino-3-{4-[4-(4-thiazol-2-yl-phenoxy)-phenoxy]-phenyl}-propionic acid]",< 5,,
"COC(=O)[C@H](N)Cc1ccc(Oc2ccc(Oc3ccccc3)cc2)cc1 [Example 1, (R)-2-Amino-3-[4-(4-phenoxy-phenoxy)-phenyl]-propionic acid methyl ester hydrochloride]",5 to 20,,
"N[C@@H](C(=O)O)c1ccc(Oc2ccc(Cc3ccccc3)cc2)cc1 [Example 15, (R)-Amino-[4-(4-benzyl-phenoxy)-phenyl]-acetic acid hydrochloride]",< 5,,
"COc1ccc(Oc2ccc(C[C@H](N)CO)cc2)cc1 [Example 19, (S)-2-Amino-3-[4-(4-methoxyphenoxy)-phenyl]-propan-1-ol hydrochloric acid salt]",< 5,,
"N[C@@H](Cc1ccc(Oc2ccc(Oc3ccccc3)cc2)cc1)C(O)C(=O)O (stereo partly drawn) [Example 10, (3S)-3-Amino-2-hydroxy-4-[4-(4-phenoxyphenoxy)phenyl]butanoic acid hydrochloride]",< 5,,
CN(CCCOc1ccc(Cc2ccccc2)cc1)CCC(=O)O.Cl [SC57461],,,inhibition of ionophore-induced LTB4 production [2]: inhibition of ionophore-induced LTB4 production; colitis symptoms (colitis symptoms): significantly improved colitis symptoms; inhibition of ionophore-induced LTB4 production [3]: inhibition of ionophore-induced LTB4 production
"N[C@H](CO)Cc1ccc(Oc2ccc(Oc3ccc(-c4nccs4)cc3)cc2)cc1 [Example 12, (S)-2-Amino-3-{4-[4-(4-thiazol-2-yl-phenoxy)-phenoxy]-phenyl}-propan-1-ol]",< 5,< 5,
"CC(=O)N(O)C[C@@H](N)Cc1ccc(Oc2ccc(Cl)cc2)cc1 [Example 22, N-{(S)-2-amino-3-[4-(4-chloro-phenoxy)-phenyl]-propyl}-N-hydroxy-acetamide HCl salt]",< 5,< 5,
"N[C@H](CO)Cc1ccc(Oc2ccc(Oc3ccccc3)cc2)cc1 [Example 4, (S)-2-Amino-3-[4-(4-phenoxy-phenoxy)-phenyl]-propan-1-ol hydrochloride]",< 5,5 to 20,
